According to patent US20260125357A1, “LACTATE ENHANCING COMPOUNDS AND USES THEREOF” (GLIAPHARM SA, priority 2022, published 2026):

Tests used:
[1] = test system: primary astrocytes; experiment: Extracellular medium acidification (SNARF5) assay in astrocytes; assay type: cell-based; settings: Mus musculus, Astrocyte; astrocytes in vitro; compounds 10 nM to 30 μM; read-out: Activity (EC50 class, extracellular medium acidification SNARF5)
Procedure: To assess for the effect of the compounds of the invention, those were tested in primary mouse astrocytes and astrocytes differentiated from human-derived induced pluripotent stem cells (iPSCs). Secretion of lactate was measured indirectly through the acidification of extracellular medium using extracellular pH sensor SNARE-5F-(AND-6)-CAR (SNARF5) as described below.
(§1) Primary cultures of cerebrocortical astrocytes were obtained from 1 to 2-day-old OF1 mouse pups (Charles River Laboratories). Briefly, cortices were isolated and minced in small pieces under a dissecting microscope. The cells were incubated for 30 min at 37° C. in a solution containing 20 U/ml papain, 1 mM L-cysteine and 10 kU/ml DNase I. After dissociation, papain activity was stopped by the addition of fetal calf serum (FCS). Single-cell suspension was then obtained by mechanical dissociation, which consisted in cells trituration in a DMEM D7777 medium supplemented with 44 mm NaHCO3, 10 ml/L antibiotic/antimycotic solution and 10% FCS. The cells were seeded at an average density of ˜10′000 cells/cm^2 on poly-D-lysine coated 96- or 12-well culture plates, depending on their use, and grown in DMEM D7777 medium supplemented with 44 mm NaHCO3, 10 ml/L antibiotic/antimycotic solution and 10% FCS at 37° C. in a humidified atmosphere containing 5% CO2/95% air. Culture medium was renewed twice a week. Cells were stimulated and harvested between DIV14 and DIV17, when confluence and cell growth were optimal.
Secretion of lactate was measured indirectly through the acidification of extracellular medium using extracellular pH sensor SNARF-5F-(AND-6)-CAR (SNARF5). After washing cells twice with stimulation medium (DMEM (D5030, Sigma), 1 mM […], and 5 mM Glucose, pH 7.4) at 37° C., cells were stimulated with compounds at a final concentration ranging from 10 nM to 30 μM in 50 μl per well of stimulation medium supplemented with 10 μM of SNARF5 (Life Technologies Corporation). Each compound was tested in two different plates for duplicates. After 30, 60 and 90 min stimulation, fluorescence was read at exc. (excitation) 480 nm/emm. (emission) 580 nm and at exc 480 nm/emm. 630 nm. The ratio of fluorescence between 630 nm and 580 emission values, which is proportional to extracellular pH, was calculated. In each plate, 8 wells were used for negative controls (DMSO 0.1%) and 8 wells were used for positive controls (CCCP 2 μM in DMSO). Results are shown as % of positive control effect (0% and 100% being activities of the Veh and positive control, respectively).

[2] = test system: Wild-type (WT) and GLUT1-DS transgenic mice; experiment: Grip strength test in WT and GLUT1-DS transgenic mice; assay type: in vivo, mouse; settings: 10 mg/kg, after rotarod session
Excerpt: (§2) Heterozygous transgenic mice on 129/SvJ genetic background in which glucose transporter 1 (GLUT1) has been knocked down were used (GLUT1(+/−)) (Wang et al., 2016, Human Molecular Genetics, 15(7)). GLUT1-deficiency syndrome (GLUT1-DS) is a prototypic hypometabolic diseases caused by the mutation of GLUT1 and decreased levels of glucose and lactate in the brain (Tang et al., 2019, Annals of Clinical and Translational Neurology 6(9)). Mating colonies were composed of wild-type female mice and GLUT1-DS male mice, or GLUT1-DS female mice and wild-type male mice. F1 pups were genotyped after ear punching at weaning using PCR to determine genotype. Mice of 2 to 3 months of age were used.
Motor strength was measured on the grip strength test (Bioseb) after rotarod session. Wild-type (WT) and GLUT1-DS transgenic mice were placed with 4 paws on the grid and maximal grip strength was recorded over 2 sessions with 5 minutes apart. Maximal grip strength over the 2 sessions was recorded.

[3] = test system: primary astrocytes; experiment: MTT mitochondrial activity assay in primary astrocytes; assay type: cell-based, mouse; settings: different concentrations, after 1.5 h or 24 h
Procedure: as §1
To monitor mitochondrial activity in astrocytes, which is linked to the metabolic process of glycolysis and production of lactate, astrocytes in 96-well plates were stimulated for 24 h (37° C. 5% CO2/95% air) with the compounds of the invention ranging from 10 nM to 10 μM.
After stimulation, 5 mg/ml thiazol blue tetrazolium bromide (MTT) in D5030 medium complemented with 5 mM D-glucose and 44 mM sodium bicarbonate (pH 7.2) was added to each well, and cells were incubated for 4 h at 37° C. (5% CO2). The medium was then removed and the amount of reduced MTT, i.e formazan, solubilized in DMSO (50 μl/well) was determined using a spectrophotometer (absorbance of 570 nm).
The mitochondrial activity was monitored in MTT colorimetric assay in primary astrocytes treated with Compounds (1), (2), (3), (4) (5), (9) and (10) at different concentrations after 1.5 h (FIG. 2 A, B, D, E, F, C, H, respectively) or 24 h (FIG. 2 H, I, K, L, M, J, N, respectively).

[4] = test system: C57Bl/6J wild-type mice; experiment: Lactate and glucose biosensors, cerebral extracellular levels in freely moving mice; assay type: in vivo, mouse; settings: per os, doses 10 to 30 mg/kg, 3 hours, AUC ratio vs vehicle
Procedure: (§3) All experiments were carried out in strict accordance with the Swiss Federal Guidelines for Animal Experimentation and were approved by the Cantonal Veterinary Office for Animal Experimentation (Canton of Geneva, Switzerland). Adult male C57Bl/6J wild-type mice weighting 18-28 g (8 to 12 weeks of age) were used (Charles River Laboratories). Animals were housed in groups of 3-5 in polypropylene cages (30×40×15 cm) with wire mesh top in a temperature (22±2° C.) and humidity (55±15%) controlled environment on a 12-hour light cycle (07.00-19.00 h lights on), except after surgeries when animal were housed individually. The samples (Vehicle or compounds of the invention) were administered per os (gavage) in a solution made of water supplemented with 0.4% hydroxypropyl methylcellulose (HPMC) Methocel 4 KM (w/v) and 0.25% Tween-20 (v/v), as previously described (Thackaberry et al., 2010, Toxicol Sci., 117(2):485-92). Concentrations of the compounds tested ranged from 3 to 30 mg/kg.
Cerebral extracellular levels of L-lactate and D-glucose were monitored in vivo using lactate and glucose biosensors (Pinnacle Technology), respectively, according to the manufacturer's instructions. Cannulae were surgically implanted in the medial prefrontal cortices (coordinates: −1.0 mm (to bregma), lateral+/−1.0 mm (to mideline), ventral −1.0 mm (to dura))) of isoflurane-anesthetized mice 5 to 7 days prior experiment. After surgery, mice were monitored closely and received analgesic treatment for at least 4 days. After mice had fully recovered from surgery, compounds of the invention of vehicle were administered per os as previously described and cerebral levels of extracellular lactate and glucose were dynamically recorded for 6 hours using biosensors. Mice were administered vehicle alone first, followed 3 hours later by vehicle or Compounds of the Invention. Concentrations of cerebral extracellular lactate and glucose were calculated from the biosensor electric signals using post-calibration values. […] Area Under the Curve (AUC) of lactate and glucose concentration curves were calculated using Graphad Prism and the ratio of AUC after drug over Vehicle administration was calculated. Extracellular concentrations of lactate and glucose were measured in real time in freely moving animals for 3 hours after administration of Vehicle or compounds (1) to (4) at doses ranging from 10 to 30 mg/kg (FIG. 5).

[5] = test system: C57Bl/6J wild-type mice; experiment: 18F-FDG PET glucose uptake in the brain; assay type: in vivo, mouse; settings: gavage, 30 mg/kg, vs Vehicle
Procedure: as §3
^18F-FDG PET Glucose uptake in the brain was measured in vivo using 18F-fluorodeoxyglucose (FDG) with positron emission tomography (PET) Scan. Mice were fasted for 12 hours before the scans PET/CT measurements. Compounds of the invention were administered by gavage, followed by an intraperitoneal injection of 5 MBq of ^18F-FDG in 300 μL of saline. […]

[6] = test system: GLUT1-DS transgenic mice; experiment: Rotarod motor function in GLUT1-DS transgenic mice; assay type: in vivo, mouse; settings: single administration 10 mg/kg, 20 min before rotarod
Excerpt: as §2
Motor function was measured in wild-type (WT) and GLUT 1-DS transgenic mice in the rotarod after single administration of Veh. or compound (1) or (2) (10 mg/kg) 20 min before rotarod. Rotarod testing consisted in placing the mouse on an accelerating rotating rod (4 to 40 r.p.m.) during a maximum of 300 seconds. 3 consecutive sessions with 15 min apart were performed. Latency for the mouse to fall from the rod was recorded and the maximal latency over the 3 trials was used as a measure of motor function.

Row | Structure (SMILES) | EC50 [1] [µM] | muscle strength (grip strength) [2] | mitochondrial activity (MTT colorimetric assay) [3] | extracellular glucose levels in the brain [4] | extracellular lactate levels in the brain [4] | glucose uptake in the brain (18F-FDG in the whole brain) [5] | rotarod performance (latency to fall) [6]
1 | COc1cc2ccnc(Cc3ccc(N4CCCC4=O)cc3)c2cc1OC [Compound 1, 1-[4-[(6,7-dimethoxy-1-isoquinolyl)methyl]phenyl]pyrrolidin-2-one] | < 1 | did not lead to any difference on muscle strength | none of the selected compounds had direct effect on mitochondrial activity | significantly increases extracellular glucose levels | significantly increases extracellular lactate levels | increases glucose uptake in the brain | increased rotarod performance
2 | COc1cc2ccnc(Nc3ccc(S(C)(=O)=O)cc3)c2cc1O [Compound 3, 6-methoxy-1-(4-methylsulfonylanilino)isoquinolin-7-ol] | < 1 | – | none of the selected compounds had direct effect on mitochondrial activity | significantly increases extracellular glucose levels | significantly increases extracellular lactate levels | – | –
3 | COc1cc2c(Nc3ccc(S(C)(=O)=O)cc3)nccc2cc1O [Compound 4, 7-methoxy-1-(4-methylsulfonylanilino)isoquinolin-6-ol] | < 1 | – | none of the selected compounds had direct effect on mitochondrial activity | significantly increases extracellular glucose levels | significantly increases extracellular lactate levels | – | –
